Measured values as given in US8940897B2, “1,3,4-oxadiazole and 1,3,4-thiadiazole β-lactamase inhibitors” (priority 2012, dated 2015).
Counter-ions that a name gives are not always drawn.

Key:
[1] = system: bacterial strains that express the class D cephalosporinase OXA-15; test: Synergy MIC / standard BLI potentiation MIC assay, strains expressing OXA-15;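 also: more active means a lower MIC or sMIC than Avibactam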; format: cell-based, E. coli; settings: in the presence of a β-lactam; comparator Avibactam (CCC)
Procedure, shortened: (§1)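 CLSI broth microdilution in CAMHB, ~10^5 CFU/mL, 18–20 h at 37 °C with aeration; engineered E. coli kept on 25 μg/mL tetracycline. Potentiation: β-lactam 128–0.13 μg/mL with BLI fixed at 4 μg/mL; synergy MIC: BLI serially diluted with fixed β-lactam. MIC is the lowest concentration without visible turbidity.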

[2] = system: bacterial strains that express KPC β-lactamases; test: Synergy MIC / standard BLI potentiation MIC assay, strains expressing KPC β-lactamases; format: cell-based; settings: for at least one KPC strain and/or a better spectrum of activity against KPC strains than Avibactam; in the presence of a β-lactam
Procedure, shortened: as §1

| SMILES | activity against bacterial strains that express OXA-15 β-lactamase compared with Avibactam [1] | activity against bacterial strains that express KPC β-lactamase compared with Avibactam [2] |
| --- | --- | --- |
| N[C@H]1C[C@@H](CCc2nnc([C@@H]3CC[C@@H]4CN3C(=O)N4OS(=O)(=O)O)o2)C1 [Compound 754, (2S,5R)-2-(5-(2-((1s,3S)-3-aminocyclobutyl)ethyl)-1,3,4-oxadiazol-2-yl)-7-oxo-1,6-diazabicyclo[3.2.1]octan-6-yl hydrogen sulfate] | more active than Avibactam | more active than Avibactam |
| NC1CC(NCc2nnc([C@@H]3CC[C@@H]4CN3C(=O)N4OS(=O)(=O)O)o2)C1 (stereo partly drawn) [Compound 755, (2S,5R)-2-(5-(((3-aminocyclobutyl)amino)methyl)-1,3,4-oxadiazol-2-yl)-7-oxo-1,6-diazabicyclo[3.2.1]octan-6-yl hydrogen sulfate] | more active than Avibactam | more active than Avibactam |
| N[C@H]1C[C@@H](NCc2nnc([C@@H]3CC[C@@H]4CN3C(=O)N4OS(=O)(=O)O)o2)C1 [Compound 756, (2S,5R)-2-(5-((((1s,3R)-3-aminocyclobutyl)amino)methyl)-1,3,4-oxadiazol-2-yl)-7-oxo-1,6-diazabicyclo[3.2.1]octan-6-yl hydrogen sulfate] | more active than Avibactam | more active than Avibactam |
| O=C1N2C[C@@H](CC[C@H]2c2nnc([C@H]3CCNC3)o2)N1OS(=O)(=O)O [Compound 758, (2S,5R)-7-oxo-2-(5-((S)-pyrrolidin-3-yl)-1,3,4-oxadiazol-2-yl)-1,6-diazabicyclo[3.2.1]octan-6-yl hydrogen sulfate] | more active than Avibactam | more active than Avibactam |
| O=C1N2C[C@@H](CC[C@H]2c2nnc([C@@H]3CCNC3)o2)N1OS(=O)(=O)O [Compound 759, (2S,5R)-7-oxo-2-(5-((R)-pyrrolidin-3-yl)-1,3,4-oxadiazol-2-yl)-1,6-diazabicyclo[3.2.1]octan-6-yl hydrogen sulfate] | more active than Avibactam | more active than Avibactam |
| N[C@@H]1CN[C@H](c2nnc([C@@H]3CC[C@@H]4CN3C(=O)N4OS(=O)(=O)O)o2)C1 [Compound 760, (2S,5R)-2-(5-((2S,4S)-4-aminopyrrolidin-2-yl)-1,3,4-oxadiazol-2-yl)-7-oxo-1,6-diazabicyclo[3.2.1]octan-6-yl hydrogen sulfate] | more active than Avibactam | more active than Avibactam |
| N[C@H]1CN[C@@H](c2nnc([C@@H]3CC[C@@H]4CN3C(=O)N4OS(=O)(=O)O)o2)C1 [Compound 761, (2S,5R)-2-(5-((2R,4R)-4-aminopyrrolidin-2-yl)-1,3,4-oxadiazol-2-yl)-7-oxo-1,6-diazabicyclo[3.2.1]octan-6-yl hydrogen sulfate] | more active than Avibactam | more active than Avibactam |
| N[C@H]1CN[C@H](c2nnc([C@@H]3CC[C@@H]4CN3C(=O)N4OS(=O)(=O)O)o2)C1 [Compound 762, (2S,5R)-2-(5-((2S,4R)-4-aminopyrrolidin-2-yl)-1,3,4-oxadiazol-2-yl)-7-oxo-1,6-diazabicyclo[3.2.1]octan-6-yl hydrogen sulfate] | more active than Avibactam | more active than Avibactam |
| N[C@@H]1CN[C@@H](c2nnc([C@@H]3CC[C@@H]4CN3C(=O)N4OS(=O)(=O)O)o2)C1 [Compound 763, (2S,5R)-2-(5-((2R,4S)-4-aminopyrrolidin-2-yl)-1,3,4-oxadiazol-2-yl)-7-oxo-1,6-diazabicyclo[3.2.1]octan-6-yl hydrogen sulfate] | more active than Avibactam | more active than Avibactam |
| O=C1N2C[C@@H](CC[C@H]2c2nnc(CC3CCNC3)o2)N1OS(=O)(=O)O (stereo partly drawn) [Compound 764, (2S,5R)-7-oxo-2-(5-(pyrrolidin-3-ylmethyl)-1,3,4-oxadiazol-2-yl)-1,6-diazabicyclo[3.2.1]octan-6-yl hydrogen sulfate] | more active than Avibactam | more active than Avibactam |
| O=C1N2C[C@@H](CC[C@H]2c2nnc(CN[C@H]3CCNC3)o2)N1OS(=O)(=O)O [Compound 765, (2S,5R)-7-oxo-2-(5-(((S)-pyrrolidin-3-ylamino)methyl)-1,3,4-oxadiazol-2-yl)-1,6-diazabicyclo[3.2.1]octan-6-yl hydrogen sulfate] | more active than Avibactam | more active than Avibactam |
| O=C1N2C[C@@H](CC[C@H]2c2nnc(CN[C@@H]3CCNC3)o2)N1OS(=O)(=O)O [Compound 766, (2S,5R)-7-oxo-2-(5-(((R)-pyrrolidin-3-ylamino)methyl)-1,3,4-oxadiazol-2-yl)-1,6-diazabicyclo[3.2.1]octan-6-yl hydrogen sulfate] | more active than Avibactam | more active than Avibactam |
| N=C1NCC(c2nnc([C@@H]3CC[C@@H]4CN3C(=O)N4OS(=O)(=O)O)o2)N1 (stereo partly drawn) [Compound 767, (2S,5R)-2-(5-(2-iminoimidazolidin-4-yl)-1,3,4-oxadiazol-2-yl)-7-oxo-1,6-diazabicyclo[3.2.1]octan-6-yl hydrogen sulfate] | more active than Avibactam | more active than Avibactam |
| N[C@H]1CC[C@@H](c2nnc([C@@H]3CC[C@@H]4CN3C(=O)N4OS(=O)(=O)O)o2)C1 [Compound 768, (2S,5R)-2-(5-((1R,3S)-3-aminocyclopentyl)-1,3,4-oxadiazol-2-yl)-7-oxo-1,6-diazabicyclo[3.2.1]octan-6-yl hydrogen sulfate] | more active than Avibactam | more active than Avibactam |
| O=C1N2C[C@@H](CC[C@H]2c2nnc(CCNC3CCNCC3)o2)N1OS(=O)(=O)O [Compound 770, (2S,5R)-7-oxo-2-(5-(2-(piperidin-4-ylamino)ethyl)-1,3,4-oxadiazol-2-yl)-1,6-diazabicyclo[3.2.1]octan-6-yl hydrogen sulfate] | more active than Avibactam | more active than Avibactam |
| O=C1N2C[C@@H](CC[C@H]2c2nnc(CCCNC3CCNCC3)o2)N1OS(=O)(=O)O [Compound 771, (2S,5R)-7-oxo-2-(5-(3-(piperidin-4-ylamino)propyl)-1,3,4-oxadiazol-2-yl)-1,6-diazabicyclo[3.2.1]octan-6-yl hydrogen sulfate] | more active than Avibactam | more active than Avibactam |
| O=C1N2C[C@@H](CC[C@H]2c2nnc(CCCCNC3CCNCC3)o2)N1OS(=O)(=O)O [Compound 772, (2S,5R)-7-oxo-2-(5-(4-(piperidin-4-ylamino)butyl)-1,3,4-oxadiazol-2-yl)-1,6-diazabicyclo[3.2.1]octan-6-yl hydrogen sulfate] | more active than Avibactam | more active than Avibactam |
| NC1CCN(Cc2nnc([C@@H]3CC[C@@H]4CN3C(=O)N4OS(=O)(=O)O)o2)CC1 [Compound 774, (2S,5R)-2-(5-((4-aminopiperidin-1-yl)methyl)-1,3,4-oxadiazol-2-yl)-7-oxo-1,6-diazabicyclo[3.2.1]octan-6-yl hydrogen sulfate] | more active than Avibactam | more active than Avibactam |
| O=C1N2C[C@@H](CC[C@H]2c2nnc(CCN3CCNCC3)o2)N1OS(=O)(=O)O [Compound 776, (2S,5R)-7-oxo-2-(5-(2-(piperazin-1-yl)ethyl)-1,3,4-oxadiazol-2-yl)-1,6-diazabicyclo[3.2.1]octan-6-yl hydrogen sulfate] | more active than Avibactam | more active than Avibactam |
| O=C1N2C[C@@H](CC[C@H]2c2nnc(CN3CCNCC3)o2)N1OS(=O)(=O)O [Compound 777, (2S,5R)-7-oxo-2-(5-(piperazin-1-ylmethyl)-1,3,4-oxadiazol-2-yl)-1,6-diazabicyclo[3.2.1]octan-6-yl hydrogen sulfate] | more active than Avibactam | more active than Avibactam |
| O=C1N2C[C@@H](CC[C@H]2c2nnc([C@H]3CNCCN3)o2)N1OS(=O)(=O)O [Compound 779, (2S,5R)-7-oxo-2-(5-((R)-piperazin-2-yl)-1,3,4-oxadiazol-2-yl)-1,6-diazabicyclo[3.2.1]octan-6-yl hydrogen sulfate] | more active than Avibactam | more active than Avibactam |
